The subject of data set [1] is tobacco budworm (Heliothis virescens). Kind of data set: Activity against tobacco budworm (TBW), sprayed diet cups with eggs. Format: in vivo. The protocol: In conducting evaluations of insecticidal activity, each test compound was formulated as a 400 ppm solution, and this solution was then diluted with water to give lesser concentrations. The 400 ppm solution was prepared by combining 19.2 mL of .05% solution of Tween 20 (polyoxyethylene (20) sorbitan monolaurate) in water with a solution of 8 mg of the compound in .8 mL of acetone/EtOH (9/1).
Activity against tobacco budworm (Heliothis virescens) was evaluated as follows. A general purpose lepidoptera artificial diet was diluted to half strength with a 5% non nutritive agar. 8 mL of this diet material was dispensed into each one ounce diet cup. One hour prior to treatment 18 to 20 eggs were dispensed onto the diet surface. The cups were then sprayed with formulated material through a flat-fan nozzle. […] Treated cups were air dried prior to sealing with plastic caps. The cups were held for 6 days at room temperature. Activity was then rated based on the total number of live and dead larvae, and on the size of live larvae.

In data set [2] the test system is Stomoxys calcitrans (stable fly). Kind of data set: Adult stable fly test, serum-saturated dental wick. Format: in vivo. The note with it: readings at 24 and 48 hours, which one is reported is not stated; for Percentage of ASF killed at 100 ppm: 100 ppm in bovine serum; for Percentage of ASF killed at 10 ppm: 10 ppm in bovine serum. Here is the method: The compound to be evaluated was dissolved in 1 part acetone/1 part ethanol to provide a stock solution of the compound at a concentration of 5,000 ppm; this solution was shaken for 15 minutes on a sonicator. Portions of the stock solution were placed in 15 ml test tubes, and portions of bovine serum were added to provide the desired dilution of the test compound. A dental wick was placed in each test tube and the serum allowed to saturate the wick.
For the adult stable fly test, the saturated wick was placed on a filter paper in a petri dish, and approximately 10 chilled live, hungry stable flies were placed on the center of the dish bottom. The dish was covered and allowed to incubate at 27°C and 60% relative humidity for 48 hours. Mortality readings were made at each of 24 and 48 hours, and adjusted for any mortality in the vehicle control to determine percent efficacy against adult stable fly.

On to 5,6-Dihydro Spinosyn J [Example F21], for which the “% MORTALITY” value in data set [1] (RATE 400 (ppm), 6 days) is 100%. Also, the “Percentage of ASF killed at 100 ppm” value in data set [2] came out at 100%.

Take “5,6-cis Dihydroxy-5,6-dihydro Spinosyn B [Example F12]”: the “% MORTALITY” value in data set [1] (RATE 400 (ppm), 6 days) is on record as 100%. In data set [2], the “Percentage of ASF killed at 100 ppm” value worked out at 100%.

`CCC1CCCC(OC2CCC(N(C)C)C(C)O2)C(C)C(=O)C2=CC3C4CC(OC5OC(C)C(OC)C(OC)C5OC(=O)c5ccc(C(F)(F)F)cc5)CC4[C@@]4(C)O[C@H]4C3C2CC(=O)O1` (stereo partly drawn) [Example A2, (5S,6R)-Epoxy-2'-O-(p-trifluoromethyl)benzoyl Spinosyn Q]: the “% MORTALITY” value in data set [1] (RATE 400 (ppm), 6 days) came to 100%. For the same molecule, in data set [2], the “Percentage of ASF killed at 100 ppm” value was 100%.

With `CCCCOC1C(OC)C(C)OC(OC2CC3CCC4C5CC(=O)OC(CC)CCCC(OC6CCC(N(C)C)C(C)O6)C(C)C(=O)C5=CC4C3C2)C1OC` (stereo not drawn) [Example A5, 5,6-Dihydro-3'-O-n-butyl Spinosyn J], the “% MORTALITY” value in data set [1] (RATE 400 (ppm), 6 days) amounted to 100%.

As for `CC[C@H]1CCC[C@H](O[C@H]2CC[C@H](N(C)C)[C@@H](C)O2)[C@@H](C)C(=O)[C@@H]2C[C@@H]3[C@@H](CC[C@@H]4C[C@@H](O[C@@H]5O[C@@H](C)[C@H](OC)[C@@H](OC)[C@H]5OC)C[C@H]43)[C@@H]2CC(=O)O1` [Example D2, (14R)-5,6,13,14-Tetrahydro Spinosyn A], in data set [2], the “Percentage of ASF killed at 10 ppm” value is reported as below 50% and the “Percentage of ASF killed at 100 ppm” value is 100%.

Regarding `CCC1CCCC(O[Si](C)(C)C)C(C)C(=O)C2=CC3C4CC(OC5OC(C)C(OC)C(OC)C5OC)CC4C4OC4C3C2CC(=O)O1` [Example E2, (5S,6R)-5,6-Epoxy-17-O-trimethylsilyl Spinosyn A 17-Psa], the “% MORTALITY” value in data set [1] (RATE 80 (unit not given), 8640 min) turned out to be 35%.

Consider `CC[C@H]1CCC[C@H](O)[C@@H](C)C(=O)C2=C[C@H]3[C@@H]4C[C@H](O[C@@H]5O[C@@H](C)[C@H](OC)[C@@H](OC)[C@H]5OC)C[C@H]4C(Br)C(Br)[C@H]3[C@@H]2CC(=O)O1` (stereo partly drawn) [Example F5, 5,6-Dibromo Spinosyn A 17-Psa], for which the “Percentage of ASF killed at 10 ppm” value in data set [2] was below 50%.

As for `CC[C@H]1CCC[C@H](O[C@H]2CCC(=O)[C@@H](C)O2)[C@@H](C)C(=O)C2=C[C@H]3[C@@H]4C[C@H](O[C@@H]5O[C@@H](C)[C@H](OC)[C@@H](OC)[C@H]5OC)C[C@H]4[C@@H](Br)[C@H](Br)[C@H]3[C@@H]2CC(=O)O1` [Example F11a, (5R,6R)-5,6-dibromo-4''-keto Spinosyn A], the “Percentage of ASF killed at 100 ppm” value in data set [2] is reported as below 50%.

For `CCC1CCCC(OC2CCC(N(C)C)C(C)O2)C(C)C(=O)C2=CC3C4CC(OC5OC(C)C(OC)C(OC)C5OC)CC4[C@@H](OC(=O)C(Cl)(Cl)Cl)[C@@H](OC(=O)C(Cl)(Cl)Cl)C3C2CC(=O)O1` (stereo partly drawn) [Example F13b, (5S,6R)-5,6-bis(trichloroacetoxy) Spinosyn A], the “% MORTALITY” value in data set [1] (RATE 400 (ppm), 6 days) amounted to 60%.

As for `CCC1CCCC(OC2CCC(N(C)C)C(C)O2)C(C)C(=O)C2=CC3C4CC(OC5OC(C)C(OC)C(OC)C5OC)CC4C[C@H](O)C3C2CC(=O)O1` (stereo partly drawn) [Example F15a, (5S)-5,6-dihydro-5-hydroxy Spinosyn A], the “% MORTALITY” value in data set [1] (RATE 400 (ppm), 6 days) is given as 100%.

In the case of `CCC1CCCC(OC2CCC(N(C)C)C(C)O2)C(C)C(=O)C2=CC3C4CC(O)CC4CCC3C2CC(=O)O1` (stereo not drawn) [Example F19, 5,6-Dihydro Spinosyn A 9-Psa], the “% MORTALITY” value in data set [1] (RATE 400 (ppm), 6 days) worked out at 100%.

As to `CC[C@H]1CCC[C@H](O)[C@@H](C)C(=O)C2=C[C@H]3[C@@H]4C[C@H](O[C@@H]5O[C@@H](C)[C@H](OC)[C@@H](OC)[C@H]5OC)C[C@H]4CC[C@H]3[C@@H]2CC(=O)O1` [Example F20, 5,6-Dihydro Spinosyn A 17-Psa], the “Percentage of ASF killed at 100 ppm” value in data set [2] is reported as below 50%.

As for (5S,6R)-Epoxy-Spinosyn Q [Example F25], the “% MORTALITY” value in data set [1] (RATE 400 (ppm), 6 days) was determined as 100%.

For “dichloroketene acetal of (5S,6R)-5,6-dihydroxy Spinosyn A [Example F13a]”, the “% MORTALITY” value in data set [1] (RATE 400 (ppm), 6 days) is 100%.
